#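 Growth conditions: 96-well plates. Treatment: test compound, 48 hours, 5 concentrations. Analysis: linear interpolation between bracketing concentrations; unreached endpoints set to highest concentration. GI50: concentration for 50% inhibition of growth. At the TGI there is no net growth.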
# Key:
# Experiment in all cases: NCI-60 cell line screen, 48 h
# TK-10 renal = system: TK-10 renal
# OVCAR-4 ovarian = system: OVCAR-4 ovarian
# DU-145 prostate = system: DU-145 prostate
# RXF 393 renal = system: RXF 393 renal
# HT29 colon = system: HT29 colon
# NCI-H226 lung = system: NCI-H226 lung
# ACHN renal = system: ACHN renal
# MOLT-4 leukemia = system: MOLT-4 leukemia
# LOX IMVI melanoma = system: LOX IMVI melanoma
# NCI-H23 lung = system: NCI-H23 lung
# A549 NSCLC = system: A549 NSCLC
# SF-295 CNS = system: SF-295 CNS
# M14 melanoma = system: M14 melanoma
# A498 renal = system: A498 renal
# OVCAR-8 ovarian = system: OVCAR-8 ovarian
# HCC-2998 colon = system: HCC-2998 colon
# MALME-3M melanoma = system: MALME-3M melanoma
# OVCAR-5 ovarian = system: OVCAR-5 ovarian
# HOP-92 NSCLC = system: HOP-92 NSCLC
# UO-31 renal = system: UO-31 renal
# BT-549 breast = system: BT-549 breast
# SNB-75 CNS = system: SNB-75 CNS
# K-562 leukemia = system: K-562 leukemia
# MCF7 breast = system: MCF7 breast
# RPMI-8226 leukemia = system: RPMI-8226 leukemia
# NCI-H522 lung = system: NCI-H522 lung
# SR leukemia = system: SR leukemia
# HCT-15 colon = system: HCT-15 colon
# SK-OV-3 ovarian = system: SK-OV-3 ovarian
# MDA-MB-231 breast = system: MDA-MB-231 breast
# OVCAR-3 ovarian = system: OVCAR-3 ovarian
# NCI/ADR-RES ovarian = system: NCI/ADR-RES ovarian
# CAKI-1 renal = system: CAKI-1 renal
# HS 578T breast = system: HS 578T breast
# SK-MEL-28 melanoma = system: SK-MEL-28 melanoma
# SN12C renal = system: SN12C renal
# PC-3 prostate = system: PC-3 prostate
# SW-620 colon = system: SW-620 colon
# SK-MEL-2 melanoma = system: SK-MEL-2 melanoma
# HCT-116 colon = system: HCT-116 colon
# CCRF-CEM leukemia = system: CCRF-CEM leukemia
# MDA-MB-435 = system: MDA-MB-435
# KM12 colon = system: KM12 colon
# HL-60(TB) leukemia = system: HL-60(TB) leukemia
# IGROV1 ovarian = system: IGROV1 ovarian
# 786-0 renal = system: 786-0 renal
# HOP-62 NSCLC = system: HOP-62 NSCLC
# COLO 205 colon = system: COLO 205 colon
# SF-268 CNS = system: SF-268 CNS
# SK-MEL-5 melanoma = system: SK-MEL-5 melanoma
# NCI-H460 lung = system: NCI-H460 lung
# UACC-257 melanoma = system: UACC-257 melanoma
# EKVX NSCLC = system: EKVX NSCLC
# T-47D breast = system: T-47D breast
# U251 CNS = system: U251 CNS
# SF-539 CNS = system: SF-539 CNS
# UACC-62 melanoma = system: UACC-62 melanoma
# SNB-19 CNS = system: SNB-19 CNS
smiles,measurement,setting,value
COc1cc(-c2cnn(C)c2)ccc1Nc1ncc2ccnc(N[C@@H](C)C(C)(C)C)c2n1,GI50,TK-10 renal,> 79.9 µM
same,TGI,TK-10 renal,> 100 µM
same,GI50,OVCAR-4 ovarian,> 46.8 µM
same,TGI,OVCAR-4 ovarian,> 100 µM
same,GI50,DU-145 prostate,> 100 µM
same,TGI,DU-145 prostate,> 100 µM
same,GI50,RXF 393 renal,8.98 µM
same,TGI,RXF 393 renal,> 100 µM
same,GI50,HT29 colon,> 50.6 µM
same,TGI,HT29 colon,> 100 µM
same,GI50,NCI-H226 lung,> 83.3 µM
same,TGI,NCI-H226 lung,> 100 µM
same,GI50,ACHN renal,4.29 µM
same,TGI,ACHN renal,> 100 µM
same,GI50,MOLT-4 leukemia,> 69 µM
same,TGI,MOLT-4 leukemia,> 100 µM
same,GI50,LOX IMVI melanoma,5.43 µM
same,TGI,LOX IMVI melanoma,> 100 µM
same,GI50,NCI-H23 lung,> 53.7 µM
same,TGI,NCI-H23 lung,> 100 µM
same,GI50,A549 NSCLC,> 45.5 µM
same,TGI,A549 NSCLC,> 100 µM
same,GI50,SF-295 CNS,> 63.3 µM
same,TGI,SF-295 CNS,> 100 µM
same,GI50,M14 melanoma,> 63.8 µM
same,TGI,M14 melanoma,> 100 µM
same,GI50,A498 renal,> 100 µM
same,TGI,A498 renal,> 100 µM
same,GI50,OVCAR-8 ovarian,> 49.6 µM
same,TGI,OVCAR-8 ovarian,> 100 µM
same,GI50,HCC-2998 colon,> 100 µM
same,TGI,HCC-2998 colon,> 100 µM
same,GI50,MALME-3M melanoma,> 66 µM
same,TGI,MALME-3M melanoma,> 100 µM
same,GI50,OVCAR-5 ovarian,97.8 µM
same,TGI,OVCAR-5 ovarian,> 100 µM
same,GI50,HOP-92 NSCLC,> 56.7 µM
same,TGI,HOP-92 NSCLC,> 100 µM
same,GI50,UO-31 renal,> 100 µM
same,TGI,UO-31 renal,> 100 µM
same,GI50,BT-549 breast,> 68.5 µM
same,TGI,BT-549 breast,> 100 µM
same,GI50,SNB-75 CNS,3.26 µM
same,TGI,SNB-75 CNS,> 100 µM
same,GI50,K-562 leukemia,> 72.8 µM
same,TGI,K-562 leukemia,> 100 µM
same,GI50,MCF7 breast,> 63.1 µM
same,TGI,MCF7 breast,> 100 µM
same,GI50,RPMI-8226 leukemia,> 100 µM
same,TGI,RPMI-8226 leukemia,> 100 µM
same,GI50,NCI-H522 lung,> 100 µM
same,TGI,NCI-H522 lung,> 100 µM
same,GI50,SR leukemia,0.695 µM
same,TGI,SR leukemia,> 100 µM
same,GI50,HCT-15 colon,0.651 µM
same,TGI,HCT-15 colon,> 100 µM
same,GI50,SK-OV-3 ovarian,> 68.1 µM
same,TGI,SK-OV-3 ovarian,> 100 µM
same,GI50,MDA-MB-231 breast,13.4 µM
same,TGI,MDA-MB-231 breast,> 100 µM
same,GI50,OVCAR-3 ovarian,> 89.8 µM
same,TGI,OVCAR-3 ovarian,> 100 µM
same,GI50,NCI/ADR-RES ovarian,> 43.4 µM
same,TGI,NCI/ADR-RES ovarian,> 100 µM
same,GI50,CAKI-1 renal,> 100 µM
same,TGI,CAKI-1 renal,> 100 µM
same,GI50,HS 578T breast,> 79 µM
same,TGI,HS 578T breast,> 100 µM
same,GI50,SK-MEL-28 melanoma,> 100 µM
same,TGI,SK-MEL-28 melanoma,> 100 µM
same,GI50,SN12C renal,> 100 µM
same,TGI,SN12C renal,> 100 µM
same,GI50,PC-3 prostate,> 96.1 µM
same,TGI,PC-3 prostate,> 100 µM
same,GI50,SW-620 colon,1.46 µM
same,TGI,SW-620 colon,> 100 µM
same,GI50,SK-MEL-2 melanoma,> 100 µM
same,TGI,SK-MEL-2 melanoma,> 100 µM
same,GI50,HCT-116 colon,0.467 µM
same,TGI,HCT-116 colon,> 100 µM
same,GI50,CCRF-CEM leukemia,> 100 µM
same,TGI,CCRF-CEM leukemia,> 100 µM
same,GI50,MDA-MB-435,> 75.1 µM
same,TGI,MDA-MB-435,> 100 µM
same,GI50,KM12 colon,1.51 µM
same,TGI,KM12 colon,> 100 µM
same,GI50,HL-60(TB) leukemia,> 100 µM
same,TGI,HL-60(TB) leukemia,> 100 µM
same,GI50,IGROV1 ovarian,> 100 µM
same,TGI,IGROV1 ovarian,> 100 µM
same,GI50,786-0 renal,> 31.6 µM
same,TGI,786-0 renal,> 100 µM
same,GI50,HOP-62 NSCLC,> 38.3 µM
same,TGI,HOP-62 NSCLC,> 100 µM
same,GI50,COLO 205 colon,1.81 µM
same,TGI,COLO 205 colon,> 100 µM
same,GI50,SF-268 CNS,> 41.5 µM
same,TGI,SF-268 CNS,> 100 µM
same,GI50,SK-MEL-5 melanoma,> 79 µM
same,TGI,SK-MEL-5 melanoma,> 100 µM
same,GI50,NCI-H460 lung,0.819 µM
same,TGI,NCI-H460 lung,> 100 µM
same,GI50,UACC-257 melanoma,> 100 µM
same,TGI,UACC-257 melanoma,> 100 µM
same,GI50,EKVX NSCLC,> 100 µM
same,TGI,EKVX NSCLC,> 100 µM
same,GI50,T-47D breast,> 100 µM
same,TGI,T-47D breast,> 100 µM
same,GI50,U251 CNS,> 55.8 µM
same,TGI,U251 CNS,> 100 µM
same,GI50,SF-539 CNS,> 57.3 µM
same,TGI,SF-539 CNS,> 100 µM
same,GI50,UACC-62 melanoma,> 100 µM
same,TGI,UACC-62 melanoma,> 100 µM
same,GI50,SNB-19 CNS,> 82.3 µM
same,TGI,SNB-19 CNS,> 100 µM
